Results on 7 compounds are retold here after patent publication US9868772B2 (INDIANA UNIVERSITY RESEARCH AND TECHNOLOGY CORPORATION, priority 2012, dated 2018).

Holding throughout (experiment): cAMP induction, firefly luciferase reporter assay in HEK293 cells co-transfected with receptor
Holding throughout (type): cell-based
On the technique in general: A reporter such as luciferase makes a cellular process visible.

Experiment [1] has as its target T1, GIP receptor (Homo sapiens, UniProt P48546).
T1 construct: expressed in transfected cells; host or cells: HEK293
T1 sequence (P48546 22-466): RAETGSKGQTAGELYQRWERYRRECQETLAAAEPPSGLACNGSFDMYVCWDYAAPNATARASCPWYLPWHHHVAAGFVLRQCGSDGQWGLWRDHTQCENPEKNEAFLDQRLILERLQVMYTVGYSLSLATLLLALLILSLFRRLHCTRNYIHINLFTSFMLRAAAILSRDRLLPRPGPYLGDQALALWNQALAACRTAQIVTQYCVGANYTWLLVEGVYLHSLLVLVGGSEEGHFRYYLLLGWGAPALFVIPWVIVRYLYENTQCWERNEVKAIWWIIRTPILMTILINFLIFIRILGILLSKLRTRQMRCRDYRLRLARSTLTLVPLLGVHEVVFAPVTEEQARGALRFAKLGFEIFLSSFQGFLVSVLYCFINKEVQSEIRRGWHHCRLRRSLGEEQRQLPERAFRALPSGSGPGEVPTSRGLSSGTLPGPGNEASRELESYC
The method, then:
(§1) The ability of glucagon analogs to induce cAMP was measured in a firefly luciferase-based reporter assay. […] At the end of the incubation 100 microliters of LucLite luminescence substrate reagent (Perkin-Elmer, Wellesley, Mass.) were added to each well. […] Effective 50% concentrations were calculated by using Origin software (OriginLab, Northampton, Mass.

Experiment [2] has as its target T2, GLP-1 receptor (Homo sapiens, UniProt P43220).
T2 construct: expressed in transfected cells; host or cells: HEK293
The method, then: as §1

In experiment [3] the target is T3, glucagon receptor (Homo sapiens, UniProt P47871).
T3 construct: expressed in transfected cells; host or cells: HEK293
T3 sequence (P47871 26-477): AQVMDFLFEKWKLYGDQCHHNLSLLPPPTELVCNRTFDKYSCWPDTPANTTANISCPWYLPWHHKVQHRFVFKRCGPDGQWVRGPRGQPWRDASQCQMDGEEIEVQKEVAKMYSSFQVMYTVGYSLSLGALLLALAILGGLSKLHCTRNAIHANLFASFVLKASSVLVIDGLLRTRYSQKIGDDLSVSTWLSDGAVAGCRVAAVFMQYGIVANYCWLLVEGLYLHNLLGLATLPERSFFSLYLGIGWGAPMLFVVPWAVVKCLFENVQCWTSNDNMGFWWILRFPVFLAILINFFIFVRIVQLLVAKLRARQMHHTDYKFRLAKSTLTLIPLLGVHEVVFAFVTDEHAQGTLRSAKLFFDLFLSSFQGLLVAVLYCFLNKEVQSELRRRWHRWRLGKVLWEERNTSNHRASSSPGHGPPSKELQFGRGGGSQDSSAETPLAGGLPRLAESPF
The procedure:
as §1

Where [4] appears, read: Table 3, analogs of SEQ ID NO: 12.
Setting [5] is: Table 2, analogs of SEQ ID NO: 10.
Where [6] appears, read: Table 1, analogs of SEQ ID NO: 37.

Numbered stars: 1 amine (or outer) side, 2 acyl side, 3 side chain; on linkers, the order of the positions; unused ones are H or OH. Square brackets hold non-standard residues; d marks the D form. Side chains are listed from the residue outwards. Peptide text beside a SMILES is read from it. * marks the point of attachment. γGlu = O=C(O)[C@H](CCC(=O)[*:2])N[*:1]; Palmitoyl = CCCCCCCCCCCCCCCC(=O)*; 2Thi = N[C@@H](Cc1cccs1)C(=O)O

T2 sequence (P43220 24-463): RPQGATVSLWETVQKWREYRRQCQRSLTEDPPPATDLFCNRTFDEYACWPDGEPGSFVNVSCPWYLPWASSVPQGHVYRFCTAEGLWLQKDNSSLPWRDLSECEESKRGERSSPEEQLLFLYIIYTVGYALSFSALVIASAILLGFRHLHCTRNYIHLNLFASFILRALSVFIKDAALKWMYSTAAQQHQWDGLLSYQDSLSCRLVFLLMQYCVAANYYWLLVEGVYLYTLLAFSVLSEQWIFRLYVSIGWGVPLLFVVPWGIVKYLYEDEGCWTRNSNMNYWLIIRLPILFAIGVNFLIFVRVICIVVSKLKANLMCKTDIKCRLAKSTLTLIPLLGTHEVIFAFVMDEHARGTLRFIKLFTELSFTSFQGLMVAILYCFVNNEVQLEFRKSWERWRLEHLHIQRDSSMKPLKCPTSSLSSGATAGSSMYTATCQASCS

For `CCCCCCCCCCCCCCCC(=O)N[C@@H](CCC(=O)NCCCC[C@H](NC(=O)[C@H](CC(=O)O)NC(=O)[C@H](CO)NC(=O)[C@@H](NC(=O)[C@H](Cc1ccccc1)NC(=O)[C@@H](NC(=O)CNC(=O)[C@H](CCC(N)=O)NC(=O)[C@H](C)NC(=O)[C@@H](Cc1ccc(O)cc1)NC(C)=O)[C@@H](C)O)[C@@H](C)O)C(=O)N[C@@H](CO)C(=O)N[C@@H](CCCCN)C(=O)N[C@@H](Cc1ccc(O)cc1)C(=O)N[C@@H](CC(C)C)C(=O)N[C@@H](CC(=O)O)C(=O)N[C@@H](CCC(=O)O)C(=O)N[C@@H](CCCNC(=N)N)C(=O)N[C@@H](C)C(=O)N[C@@H](C)C(=O)N[C@@H](CCC(N)=O)C(=O)N[C@@H](CC(=O)O)C(=O)N[C@@H](Cc1ccccc1)C(=O)N[C@H](C(=O)N[C@@H](CCC(N)=O)C(=O)N[C@@H](Cc1c[nH]c2ccccc12)C(=O)N[C@@H](CC(C)C)C(=O)N[C@@H](CC(C)C)C(=O)N[C@@H](CCC(=O)O)C(=O)N[C@@H](C)C(=O)NCC(=O)N1CCC[C@H]1C(=O)N[C@@H](CO)C(=O)N[C@@H](CO)C(=O)NCC(=O)N[C@@H](C)C(=O)N1CCC[C@H]1C(=O)N1CCC[C@H]1C(=O)N1CCC[C@H]1C(=O)N[C@@H](CO)C(N)=O)C(C)C)C(=O)O` [compound 146] (Ac-[dY]AQGTFTSDK([γGlu-Palmitoyl])SKYLDERAAQDFVQWLLEAGPSSGAPPPS-NH2), the EC50 (commonly the concentration that produces a half-maximal response) in experiment [1] (setting [4]) came to 6 pM; in experiment [2] (setting [4]), 7 pM; in experiment [3] (setting [4]) it was 9 pM.
As to `CCCCCCCCCCCCCCCC(=O)N[C@@H](CCC(=O)NCCCC[C@H](NC(=O)[C@H](CC(=O)O)NC(=O)[C@H](CO)NC(=O)[C@@H](NC(=O)[C@H](Cc1ccccc1)NC(=O)[C@@H](NC(=O)CNC(=O)[C@H](CCC(N)=O)NC(=O)[C@H](C)NC(=O)[C@@H](Cc1ccc(O)cc1)NC(C)=O)[C@@H](C)O)[C@@H](C)O)C(=O)N[C@@H](CO)C(=O)N[C@@H](CCCCN)C(=O)N[C@@H](Cc1ccc(O)cc1)C(=O)N[C@@H](CC(C)C)C(=O)N[C@@H](CC(=O)O)C(=O)N[C@@H](CCC(=O)O)C(=O)N[C@@H](CCCNC(=N)N)C(=O)N[C@@H](C)C(=O)N[C@@H](C)C(=O)N[C@@H](CCC(N)=O)C(=O)N[C@@H](CC(=O)O)C(=O)N[C@@H](Cc1ccccc1)C(=O)N[C@H](C(=O)N[C@@H](CCC(N)=O)C(=O)N[C@@H](Cc1c[nH]c2ccccc12)C(=O)N[C@@H](CC(C)C)C(=O)N[C@@H](CC(C)C)C(=O)N[C@@H](CC(=O)O)C(=O)N[C@@H](C)C(=O)NCC(=O)N1CCC[C@H]1C(=O)N[C@@H](CO)C(=O)N[C@@H](CO)C(=O)NCC(=O)N[C@@H](C)C(=O)N1CCC[C@H]1C(=O)N1CCC[C@H]1C(=O)N1CCC[C@H]1C(=O)N[C@@H](CO)C(N)=O)C(C)C)C(=O)O` [compound 143] (Ac-[dY]AQGTFTSDK([γGlu-Palmitoyl])SKYLDERAAQDFVQWLLDAGPSSGAPPPS-NH2), the EC50 in experiment [1] (setting [4]) was 3 pM; in experiment [2] (setting [4]), 3 pM; in experiment [3] (setting [4]), 4 pM.
Take `CCCCCCCCCCCCCCCC(=O)N[C@@H](CCC(=O)NCCCC[C@H](NC(=O)[C@H](CC(=O)O)NC(=O)[C@H](CO)NC(=O)[C@@H](NC(=O)[C@H](Cc1ccccc1)NC(=O)[C@@H](NC(=O)CNC(=O)[C@H](CCC(N)=O)NC(=O)[C@H](C)NC(=O)[C@@H](Cc1ccccc1)NC(C)=O)[C@@H](C)O)[C@@H](C)O)C(=O)N[C@@H](CO)C(=O)N[C@@H](CCCCN)C(=O)N[C@@H](Cc1ccc(O)cc1)C(=O)N[C@@H](CC(C)C)C(=O)N[C@@H](CC(=O)O)C(=O)N[C@@H](CCC(=O)O)C(=O)N[C@@H](CCCNC(=N)N)C(=O)N[C@@H](C)C(=O)N[C@@H](C)C(=O)N[C@@H](CCC(N)=O)C(=O)N[C@@H](CC(=O)O)C(=O)N[C@@H](Cc1ccccc1)C(=O)N[C@H](C(=O)N[C@@H](CCC(N)=O)C(=O)N[C@@H](Cc1c[nH]c2ccccc12)C(=O)N[C@@H](CC(C)C)C(=O)N[C@@H](CC(C)C)C(=O)N[C@@H](CCC(=O)O)C(=O)NCC(=O)NCC(=O)N1CCC[C@H]1C(=O)N[C@@H](CO)C(=O)N[C@@H](CO)C(=O)NCC(=O)N[C@@H](C)C(=O)N1CCC[C@H]1C(=O)N1CCC[C@H]1C(=O)N1CCC[C@H]1C(=O)N[C@@H](CO)C(N)=O)C(C)C)C(=O)O` [compound 150]: the EC50 in experiment [1] (setting [5]) is 11 pM; in experiment [2] (setting [5]), 2 pM; in experiment [3] (setting [5]) it was 14 pM.
With “Ac-[dY]AQGTFTSDYSKYLDERAAQDFVQWLLEAGPSSGAPPPSK([γGlu-γGlu-Palmitoyl])G-NH2 [compound 159]”, the EC50 in experiment [1] (setting [5]) is 80 pM; in experiment [2] (setting [5]) it was 9 pM; in experiment [3] (setting [5]), 40 pM.
Turning to `CCCCCCCCCCCCCCCC(=O)N[C@@H](CCC(=O)NCCCC[C@H](NC(=O)[C@H](CC(=O)O)NC(=O)[C@H](CO)NC(=O)[C@@H](NC(=O)[C@H](Cc1ccccc1)NC(=O)[C@@H](NC(=O)CNC(=O)[C@H](CCC(N)=O)NC(=O)[C@H](C)NC(=O)[C@@H](Cc1ccc(O)cc1)NC(C)=O)[C@@H](C)O)[C@@H](C)O)C(=O)N[C@@H](CO)C(=O)N[C@@H](CCCCN)C(=O)N[C@@H](Cc1ccc(O)cc1)C(=O)N[C@@H](CC(C)C)C(=O)N[C@@H](CC(=O)O)C(=O)N[C@@H](CCC(=O)O)C(=O)N[C@@H](CCCNC(=N)N)C(=O)N[C@@H](C)C(=O)N[C@@H](C)C(=O)N[C@@H](CCC(N)=O)C(=O)N[C@@H](CC(=O)O)C(=O)N[C@@H](Cc1ccccc1)C(=O)N[C@H](C(=O)N[C@@H](CCC(N)=O)C(=O)N[C@@H](Cc1c[nH]c2ccccc12)C(=O)N[C@@H](CC(C)C)C(=O)N[C@@H](CC(C)C)C(=O)N[C@@H](CCC(=O)O)C(=O)NCC(=O)NCC(=O)N1CCC[C@H]1C(=O)N[C@@H](CO)C(=O)N[C@@H](CO)C(=O)NCC(=O)N[C@@H](C)C(=O)N1CCC[C@H]1C(=O)N1CCC[C@H]1C(=O)N1CCC[C@H]1C(=O)N[C@@H](CO)C(N)=O)C(C)C)C(=O)O` [compound 12], the EC50 in experiment [1] (setting [6]) was found to be 2 pM; in experiment [2] (setting [6]), 3 pM; in experiment [3] (setting [6]) it was 7 pM.
In the case of `CCCCCCCCCCCCCCCC(=O)N[C@@H](CCC(=O)NCCCC[C@H](NC(=O)[C@H](CC(=O)O)NC(=O)[C@H](CO)NC(=O)[C@@H](NC(=O)[C@H](Cc1ccccc1)NC(=O)[C@@H](NC(=O)CNC(=O)[C@H](CCC(N)=O)NC(=O)CNC(=O)[C@H](CCC(N)=O)NC(C)=O)[C@@H](C)O)[C@@H](C)O)C(=O)N[C@@H](CO)C(=O)N[C@@H](CCCCN)C(=O)N[C@@H](Cc1ccc(O)cc1)C(=O)N[C@@H](CC(C)C)C(=O)N[C@@H](CC(=O)O)C(=O)N[C@@H](CCC(=O)O)C(=O)N[C@@H](CCCNC(=N)N)C(=O)N[C@@H](C)C(=O)N[C@@H](C)C(=O)N[C@@H](CCC(N)=O)C(=O)N[C@@H](CC(=O)O)C(=O)N[C@@H](Cc1ccccc1)C(=O)N[C@H](C(=O)N[C@@H](CCC(N)=O)C(=O)N[C@@H](Cc1c[nH]c2ccccc12)C(=O)N[C@@H](CC(C)C)C(=O)N[C@@H](CC(C)C)C(=O)N[C@@H](CCC(=O)O)C(=O)NCC(=O)NCC(=O)N1CCC[C@H]1C(=O)N[C@@H](CO)C(=O)N[C@@H](CO)C(=O)NCC(=O)N[C@@H](C)C(=O)N1CCC[C@H]1C(=O)N1CCC[C@H]1C(=O)N1CCC[C@H]1C(=O)N[C@@H](CO)C(N)=O)C(C)C)C(=O)O` [compound 34] (Ac-QGQGTFTSDK([γGlu-Palmitoyl])SKYLDERAAQDFVQWLLEGGPSSGAPPPS-NH2), the results for the EC50 in experiment [1] (setting [6]), in experiment [2] (setting [6]) and in experiment [3] (setting [6]) were 436 pM, 611 pM and 163 pM, respectively.
As for `CCCCCCCCCCCCCCCC(=O)N[C@@H](CCC(=O)NCCCC[C@H](NC(=O)[C@H](CC(=O)O)NC(=O)[C@H](CO)NC(=O)[C@@H](NC(=O)[C@H](Cc1ccccc1)NC(=O)[C@@H](NC(=O)CNC(=O)[C@H](CCC(N)=O)NC(=O)[C@@H]1CCCN1C(=O)[C@@H](N)Cc1cccs1)[C@@H](C)O)[C@@H](C)O)C(=O)N[C@@H](CO)C(=O)N[C@@H](CCCCN)C(=O)N[C@@H](Cc1ccc(O)cc1)C(=O)N[C@@H](CC(C)C)C(=O)N[C@@H](CC(=O)O)C(=O)N[C@@H](CCC(=O)O)C(=O)N[C@@H](CCCNC(=N)N)C(=O)N[C@@H](C)C(=O)N[C@@H](C)C(=O)N[C@@H](CCC(N)=O)C(=O)N[C@@H](CC(=O)O)C(=O)N[C@@H](Cc1ccccc1)C(=O)N[C@H](C(=O)N[C@@H](CCC(N)=O)C(=O)N[C@@H](Cc1c[nH]c2ccccc12)C(=O)N[C@@H](CC(C)C)C(=O)N[C@@H](CC(C)C)C(=O)N[C@@H](CCC(=O)O)C(=O)NCC(=O)NCC(=O)N1CCC[C@H]1C(=O)N[C@@H](CO)C(=O)N[C@@H](CO)C(=O)NCC(=O)N[C@@H](C)C(=O)N1CCC[C@H]1C(=O)N1CCC[C@H]1C(=O)N1CCC[C@H]1C(=O)N[C@@H](CO)C(N)=O)C(C)C)C(=O)O` [compound 33] (H-[2Thi]PQGTFTSDK([γGlu-Palmitoyl])SKYLDERAAQDFVQWLLEGGPSSGAPPPS-NH2), the EC50 in experiment [1] (setting [6]) stood at 430 pM; in experiment [2] (setting [6]) it was 5 pM; in experiment [3] (setting [6]), 121 pM.
